Legend:
HUVEC cells = experiment: VEGF ligand-dependent cell proliferation; type: cell-based; details: Homo sapiens, VEGF 165 50 ng/ml, 72 hours, MTS
Experimental: VEGF dependent cell proliferation:
HUVEC cells were plated into 96-well plates at 6,000 per well and incubated with serum-free medium for 2 hours. Compounds and VEGF 165 (50 ng/ml) were added and incubated for 72 hours in serum-free medium. The effects on proliferation were determined by addition of MTS reagent (Promega) according to the instruction, incubation for 2 hours at 37° C. in CO2 incubator, and record the absorbance at 490 nm using an ELISA plate reader.

VEGFR2 = VEGFR2 (Homo sapiens, UniProt P35968); experiment: VEGF receptor kinase ELISA bioassay; type: biochemical; details: ELISA kinase assay, 200 μM ATP
MDA-MB-231 = experiment: Tumor cell proliferation (MTS), MDA-MB-231; type: cell-based; details: Homo sapiens, MDA-MB-231, 72 hours
Experimental: Measurement of in vivo cell proliferation:
Tumor cells were trypsinized and plated into 96-well plates at 3,000 per well and incubated in complete medium with 10% FBS for 24 hours. Compounds were added over a final concentration range of 100 μmol/L to 100 nmol/L in 0.1% DMSO and incubated for 72 hours in complete medium. The effects on proliferation were determined by addition of MTS reagent (Promega) according to the instruction, incubation for 2 hours at 37° C. in CO2 incubator, and record the absorbance at 490 nm using an ELISA plate reader.

Sequence of VEGFR2 (P35968 807-1356): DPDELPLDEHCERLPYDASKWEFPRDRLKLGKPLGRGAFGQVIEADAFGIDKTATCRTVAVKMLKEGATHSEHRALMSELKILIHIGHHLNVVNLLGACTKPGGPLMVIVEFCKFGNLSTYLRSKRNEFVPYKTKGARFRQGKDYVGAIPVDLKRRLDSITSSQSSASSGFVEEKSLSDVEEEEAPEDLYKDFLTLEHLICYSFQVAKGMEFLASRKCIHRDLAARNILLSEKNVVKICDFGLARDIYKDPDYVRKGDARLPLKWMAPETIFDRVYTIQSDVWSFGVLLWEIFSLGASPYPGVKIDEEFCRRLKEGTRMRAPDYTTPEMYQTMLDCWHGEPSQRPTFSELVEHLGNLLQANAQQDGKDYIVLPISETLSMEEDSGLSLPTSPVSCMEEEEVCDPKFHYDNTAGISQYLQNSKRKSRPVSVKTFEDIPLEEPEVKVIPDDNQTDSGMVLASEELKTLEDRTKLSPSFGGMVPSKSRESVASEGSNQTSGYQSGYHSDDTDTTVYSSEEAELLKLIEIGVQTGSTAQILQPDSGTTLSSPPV

| Compound | IC50 (VEGFR2) [nM] | GI50 (MDA-MB-231) [µM] | GI50 (HUVEC cells) [nM] |
| --- | --- | --- | --- |
| Cc1[nH]c(/C=C2\C(=O)Nc3ccc(F)cc32)c(C)c1C(=O)NCCCNc1ccc(C(=O)Nc2ccc(F)cc2N)cn1 [Example 16, (Z)-N-(2-amino-4-fluorophenyl)-6-(3-(2-((5-fluoro-2-oxoindolin-3-ylidene)-methyl)-3,5-dimethyl-1H-pyrrole-4-carboxamido)propylamino)nicotinamide] | 72 | > 60 | 39 |
| Cc1[nH]c(/C=N/N=C2\C(=O)Nc3ccc(F)cc32)c(C)c1C(=O)NCCCNc1ccc(C(=O)Nc2ccccc2N)cn1 [Example 7, N-(2-aminophenyl)-6-(3-(2-(((5-fluoro-2-oxoindolin-3-ylidene)hydrazono)-methyl)-3,5-dimethyl-1H-pyrrole-4-carboxamido)propylamino)nicotinamide] | 634 | > 60 | 387 |
| Cc1[nH]c(/C=N/N=C2\C(=O)Nc3ccc(F)cc32)c(C)c1C(=O)NCCNc1ccc(C(=O)Nc2ccc(F)cc2N)cn1 [Example 14, N-(2-amino-4-fluorophenyl)-6-(2-(2-(((5-fluoro-2-oxoindolin-3-ylidene)-hydrazono)methyl)-3,5-dimethyl-1H-pyrrole-4-carboxamido)ethylamino)nicotinamide] | 324 | > 60 | 201 |
| Cc1[nH]c(/C=N/N=C2\C(=O)Nc3ccc(F)cc32)c(C)c1C(=O)NCCCCNc1ccc(C(=O)Nc2ccc(F)cc2N)cn1 [Example 20, N-(2-amino-4-fluorophenyl)-6-(4-(2-(((5-fluoro-2-oxoindolin-3-ylidene)-hydrazono)methyl)-3,5-dimethyl-1H-pyrrole-4-carboxamido)butylamino)nicotinamide] | > 1000 | > 60 | 330 |
| Cc1[nH]c(/C=C2\C(=O)Nc3ccc(F)cc32)c(C)c1C(=O)NCCCCNc1ccc(C(=O)Nc2ccc(F)cc2N)cn1 [Example 19, (Z)-N-(2-amino-4-fluorophenyl)-6-(4-(2-((5-fluoro-2-oxoindolin-3-ylidene)-methyl)-3,5-dimethyl-1H-pyrrole-4-carboxamido)butylamino)nicotinamide] | 157 | > 60 | 81 |
| Cc1[nH]c(/C=N/N=C2\C(=O)Nc3ccc(F)cc32)c(C)c1C(=O)NCCCCNc1ccc(C(=O)Nc2ccccc2N)cn1 [Example 10, N-(2-aminophenyl)-6-(4-(2-(((5-fluoro-2-oxoindolin-3-ylidene)hydrazono)-methyl)-3,5-dimethyl-1H-pyrrole-4-carboxamido)butylamino)nicotinamide] | > 1000 | > 60 | 568 |
| Cc1[nH]c(/C=N/N=C2\C(=O)Nc3ccc(F)cc32)c(C)c1C(=O)NCCCNc1ccc(C(=O)Nc2ccc(F)cc2N)cn1 [Example 17, N-(2-amino-4-fluorophenyl)-6-(3-(2-(((5-fluoro-2-oxoindolin-3-ylidene)-hydrazono)methyl)-3,5-dimethyl-1H-pyrrole-4-carboxamido)propylamino)nicotinamide] | > 1000 | > 60 | 460 |

Now those with a lower IC50 (VEGFR2), led by results:

| IC50 (VEGFR2) [nM] | GI50 (MDA-MB-231) [µM] | Compound | GI50 (HUVEC cells) [nM] |
| --- | --- | --- | --- |
| 35 | > 60 | Cc1[nH]c(/C=C2\C(=O)Nc3ccc(F)cc32)c(C)c1C(=O)NCCCCNc1ccc(C(=O)Nc2ccccc2N)cn1 [Example 9, (Z)-N-(2-aminophenyl)-6-(4-(2-((5-fluoro-2-oxoindolin-3-ylidene)methyl)-3,5-dimethyl-1H-pyrrole-4-carboxamido)butylamino)nicotinamide] | 12 |
| 11 | > 60 | Cc1[nH]c(/C=C2\C(=O)Nc3ccc(F)cc32)c(C)c1C(=O)NCCNc1ccc(C(=O)Nc2ccccc2N)cn1 [Example 3, (Z)-N-(2-aminophenyl)-6-(2-(2-((5-fluoro-2-oxoindolin-3-ylidene)methyl)-3,5-dimethyl-1H-pyrrole-4-carboxamido)ethylamino)nicotinamide] | < 1 |
| 12 | > 60 | Cc1[nH]c(/C=N/N=C2\C(=O)Nc3ccc(F)cc32)c(C)c1C(=O)NCCNc1ccc(C(=O)Nc2ccccc2N)cn1 [Example 4, N-(2-aminophenyl)-6-(2-(2-(((5-fluoro-2-oxoindolin-3-ylidene)hydrazono)-methyl)-3,5-dimethyl-1H-pyrrole-4-carboxamido)ethylamino)nicotinamide] | 1 |
| 45 | > 60 | Cc1[nH]c(/C=C2\C(=O)Nc3ccc(F)cc32)c(C)c1C(=O)NCCCNc1ccc(C(=O)Nc2ccccc2N)cn1 [Example 6, (Z)-N-(2-aminophenyl)-6-(3-(2-((5-fluoro-2-oxoindolin-3-ylidene)methyl)-3,5-dimethyl-1H-pyrrole-4-carboxamido)propylamino)nicotinamide] | 9 |
| 43 | > 60 | Cc1[nH]c(/C=C2\C(=O)Nc3ccc(F)cc32)c(C)c1C(=O)NCCNc1ccc(C(=O)Nc2ccc(F)cc2N)cn1 [Example 13, (Z)-N-(2-amino-4-fluorophenyl)-6-(2-(2-((5-fluoro-2-oxoindolin-3-ylidene)-methyl)-3,5-dimethyl-1H-pyrrole-4-carboxamido)ethylamino)nicotinamide] | 7 |
